Test results taken from patent publication US20260049085A1, “CYCLIC COMPOUNDS AND METHODS OF USING SAME” (SCHRÖDINGER, INC., priority 2022, published 2026).

These compounds were tested against T1, full-length MALT1 protein His-MALT1(1-824) (Homo sapiens, UniProt Q9UDY8) (assay: MALT1 protease assay (Ac-LRSR-AMC tetrapeptide substrate, fluorescence)). Conditions: 1 nM MALT1, 25 μM Ac-LRSR-AMC, 2 h pre-incubation, 8 hr incubation at RT.
T1 construct: full-length MALT1 protein His-MALT1(1-824); His (N); made in house; host or cells: baculovirus-infected insect cells
T1 sequence (Q9UDY8 1-824): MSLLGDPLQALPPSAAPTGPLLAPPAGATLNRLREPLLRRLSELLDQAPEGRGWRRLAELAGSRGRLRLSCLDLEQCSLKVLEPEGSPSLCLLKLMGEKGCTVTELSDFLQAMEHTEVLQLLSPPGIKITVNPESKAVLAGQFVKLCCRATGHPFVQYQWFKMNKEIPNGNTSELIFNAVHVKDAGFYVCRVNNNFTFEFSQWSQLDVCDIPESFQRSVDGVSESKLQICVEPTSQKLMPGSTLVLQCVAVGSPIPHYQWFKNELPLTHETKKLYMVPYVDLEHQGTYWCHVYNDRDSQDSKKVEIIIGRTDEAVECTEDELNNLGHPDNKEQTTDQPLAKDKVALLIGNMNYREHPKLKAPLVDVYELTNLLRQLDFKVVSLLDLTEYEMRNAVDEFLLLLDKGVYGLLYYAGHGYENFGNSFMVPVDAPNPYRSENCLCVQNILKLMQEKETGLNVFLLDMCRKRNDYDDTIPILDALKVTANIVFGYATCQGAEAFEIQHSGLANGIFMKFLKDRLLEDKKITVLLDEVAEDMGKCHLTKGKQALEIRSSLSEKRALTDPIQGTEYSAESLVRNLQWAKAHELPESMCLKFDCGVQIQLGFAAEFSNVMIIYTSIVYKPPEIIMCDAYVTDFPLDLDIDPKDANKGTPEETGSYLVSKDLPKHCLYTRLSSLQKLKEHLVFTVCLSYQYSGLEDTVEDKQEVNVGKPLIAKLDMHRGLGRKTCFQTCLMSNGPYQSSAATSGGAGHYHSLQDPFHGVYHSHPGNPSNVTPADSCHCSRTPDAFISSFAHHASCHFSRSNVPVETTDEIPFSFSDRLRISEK
Type: biochemical
Procedure: MALT1 protease activity was assessed in an in vitro assay using a tetrapeptide as substrate and full-length MALT1 protein His-MALT1(1-824) purified from baculovirus-infected insect cells.
The final assay buffer includes 1 nM of MALT1 full-length protein, 25 μM Ac-LRSR-AMC substrate, 50 mM Tris pH 7.5, 600 mM Sodium Citrate, 1 mM DTT, 1 mM EDTA, and 0.05% BSA in 384-well plate format using black microtiter square well plates (Optiplate 384-F, Perkin Elmer).
Test compounds were dissolved in 100% DMSO stock of 10 mM, with final DMSO concentration of 0.1%. Test compounds were pre-incubated with MALT1 protein for 2 h at room temperature. Substrate was added after the pre-incubation and fluorescence signal was measured using Envision at excitation 355 nm and emission 460 nm after 8 hr incubation at RT.
The fluorescence units were transformed to percentage of remaining activity by using the high control (HC, median of fluorescence signal from wells containing MALT1 protein, substrate, and DMSO) and low control (LC, median of fluorescence signal from wells with substrate only) with the formula below: […]
IC50 and Hill coefficients were obtained using Graph Pad Prism (Graph Pad software, Inc, USA) with non-linear regression analysis.

| SMILES | IC50 [nM] |
| --- | --- |
| Cn1cc([C@]2(C)C[C@@H](C(=O)Nc3cnc(OC(F)F)c(C#N)c3)c3cnc4cc(F)nn4c32)cn1 (single isomer, unassigned) [Example 41] | ≥ 1000 |
| CCn1cc([C@]2(C)C[C@H](C(=O)Nc3cnc(-n4nccn4)c(Cl)c3)c3cnc4cc(F)nn4c32)cn1 (single isomer, unassigned) [Example 22] | 10 to 100 |
| C[C@@]1(c2cnn(CC3CC3)c2)C[C@H](C(=O)Nc2cnc(-n3nccn3)c(Cl)c2)c2cnc3cc(F)nn3c21 (single isomer, unassigned) [Example 100] | 10 to 100 |
| Cn1ccc([C@]2(C)C[C@@H](C(=O)Nc3cnc(-n4nccn4)c(Cl)c3)c3cnc4cc(F)nn4c32)n1 (single isomer, unassigned) [Example 33] | ≥ 1000 |
| CC(C)n1cc([C@]2(C)C[C@@H](C(=O)Nc3cnc(-n4nccn4)c(Cl)c3)c3cnc4cc(F)nn4c32)cn1 (single isomer, unassigned) [Example 49] | ≥ 1000 |
| C[C@@]1(c2cnn(C(F)F)c2)C[C@H](C(=O)Nc2cnc(-n3nccn3)c(C(F)(F)F)c2)c2cnc3cc(F)nn3c21 (single isomer, unassigned) [Example 82] | 10 to 100 |
| CC(C)n1cc([C@]2(C)C[C@H](C(=O)Nc3cnc(-n4nccn4)c(Cl)c3)c3cnc4cc(F)nn4c32)cn1 (single isomer, unassigned) [Example 50] | 10 to 100 |
| C[C@]1(c2cnn(CC3CC3)c2)C[C@H](C(=O)Nc2cnc(-n3nccn3)c(Cl)c2)c2cnc3cc(F)nn3c21 (single isomer, unassigned) [Example 98] | < 10 |
| Cn1cc([C@]2(C)C[C@@H](C(=O)Nc3cnc(-n4nccn4)c(Cl)c3)c3cnc4c(Cl)c(F)nn4c32)cn1 (single isomer, unassigned) [Example 17] | ≥ 1000 |
| C[C@]1(c2cnn(C3CC3)c2)C[C@@H](C(=O)Nc2cnc(-n3nccn3)c(Cl)c2)c2cnc3cc(F)nn3c21 (single isomer, unassigned) [Example 31] | ≥ 1000 |
| C[C@@]1(c2cnn(C(F)F)c2)C[C@@H](C(=O)Nc2cnc(OC(F)F)c(C#N)c2)c2cnc3cc(F)nn3c21 (single isomer, unassigned) [Example 93] | ≥ 1000 |
| Cn1cc([C@]2(C)C[C@@H](C(=O)Nc3cnc(-n4nccn4)c(C(F)(F)F)c3)c3cnc4cc(F)nn4c32)cn1 (single isomer, unassigned) [Example 4] | ≥ 1000 |
| C[C@@]1(c2ccn(C(F)F)n2)C[C@@H](C(=O)Nc2cnc(-n3nccn3)c(Cl)c2)c2cnc3cc(F)nn3c21 (single isomer, unassigned) [Example 89] | ≥ 1000 |
| Cn1cc([C@@]2(C)C[C@@H](C(=O)Nc3ccnc(C(F)(F)F)c3)c3cnc4cc(Cl)nn4c32)cn1 (single isomer, unassigned) [Example 47] | ≥ 1000 |
| C[C@@]1(c2cnn(CC(F)(F)F)c2)C[C@@H](C(=O)Nc2cnc(-n3nccn3)c(Cl)c2)c2cnc3cc(F)nn3c21 (single isomer, unassigned) [Example 85] | ≥ 1000 |
| Cn1cc([C@@]2(C)C[C@@H](C(=O)Nc3cnc(-n4nccn4)c(Cl)c3)c3cnc4c(F)c(F)nn4c32)cn1 (single isomer, unassigned) [Example 15] | 100 to 1000 |
| Cn1cc([C@]2(C)C[C@H](C(=O)Nc3cnc(OC(F)(F)F)c(C#N)c3)c3cnc4cc(F)nn4c32)cn1 (single isomer, unassigned) [Example 54] | 100 to 1000 |

Further lines, results first:

| IC50 [nM] | SMILES |
| --- | --- |
| < 10 | C[C@]1(c2ccn(C(F)F)n2)C[C@H](C(=O)Nc2cnc(-c3ncccn3)c(C(F)(F)F)c2)c2cnc3cc(Cl)nn3c21 (single isomer, unassigned) [Example 171] |
| < 10 | CC(F)(F)n1ccc([C@@]2(C)C[C@H](C(=O)Nc3cnc(-c4ncccn4)c(C(F)(F)F)c3)c3cnc4cc(F)nn4c32)n1 (single isomer, unassigned) [Example 164, (trans)-8-(1-(1,1-difluoroethyl)-1H-pyrazol-3-yl)-2-fluoro-8-methyl-N-(6-(pyrimidin-2-yl)-5-(trifluoromethyl)pyridin-3-yl)-7,8-dihydro-6H-cyclopenta[e]pyrazolo[1,5-a]pyrimidine-6-carboxamide] |
| 100 to 1000 | C[C@@]1(c2ccn(C3CC3)n2)C[C@H](C(=O)Nc2cnc(-n3nccn3)c(Cl)c2)c2cnc3cc(F)nn3c21 (single isomer, unassigned) [Example 154] |
| 100 to 1000 | C[C@]1(c2cnn(C(F)(F)F)c2)C[C@@H](C(=O)Nc2cnc(-n3nccn3)c(Cl)c2)c2cnc3cc(F)nn3c21 (single isomer, unassigned) [Example 105] |
| 100 to 1000 | CC1(c2cnn(C(F)F)c2)CC(C(=O)Nc2cnc(-c3ncc(F)cn3)c(Cl)c2)c2cnc3cc(F)nn3c21 (single isomer, unassigned) [Example 135] |
| 100 to 1000 | CC1(n2cc([C@]3(C)C[C@H](C(=O)Nc4cnc(-n5nccn5)c(Cl)c4)c4cnc5cc(F)nn5c43)cn2)CC1 (single isomer, unassigned) [Example 108] |
| 10 to 100 | C[C@]1(c2ccn(C(F)F)n2)C[C@H](C(=O)Nc2ccc(-c3ncccn3)c(Cl)c2)c2cnc3cc(F)nn3c21 (single isomer, unassigned) [Example 189] |
| 10 to 100 | C[C@]1(c2cn(C(F)F)nn2)C[C@H](C(=O)Nc2cnc(-n3nccn3)c(Cl)c2)c2cnc3cc(F)nn3c21 (single isomer, unassigned) [Example 175] |
| < 10 | C[C@]1(c2ccn(C3CC3)n2)C[C@H](C(=O)Nc2cnc(-n3nccn3)c(Cl)c2)c2cnc3cc(F)nn3c21 (single isomer, unassigned) [Example 152] |
| 10 to 100 | Cc1cc2ncc3c(n2n1)[C@@](C)(c1ccn(C(F)F)n1)C[C@@H]3C(=O)Nc1cnc(-c2ncccn2)c(C(F)(F)F)c1 (racemic) [Example 195, (tras)-8-(1-(difluoromethyl)-1H-pyrazol-3-yl)-2,8-dimethyl-N-(6-(pyrimidin-2-yl)-5-(trifluoromethyl)pyridin-3-yl)-7,8-dihydro-6H-cyclopenta[e]pyrazolo[1,5-a]pyrimidine-6-carboxamide] |
| ≥ 1000 | COc1cc(NC(=O)[C@@H]2C[C@](C)(c3ccn(C(F)F)n3)c3c2cnc2cc(F)nn32)cnc1-c1ncccn1 (single isomer, unassigned) [Example 182] |
| 100 to 1000 | Cc1cc2ncc3c(n2n1)[C@](C)(c1ccn(C(F)F)n1)C[C@@H]3C(=O)Nc1cnc(-c2ncccn2)c(C(F)(F)F)c1 (racemic) [Example 196, (cis)-8-(1-(difluoromethyl)-1H-pyrazol-3-yl)-2,8-dimethyl-N-(6-(pyrimidin-2-yl)-5-(trifluoromethyl)pyridin-3-yl)-7,8-dihydro-6H-cyclopenta[e]pyrazolo[1,5-a]pyrimidine-6-carboxamide] |
| 100 to 1000 | CC(F)(F)n1cc([C@]2(C)C[C@H](C(=O)Nc3cnc(-n4nccn4)c(Cl)c3)c3cnc4cc(F)nn4c32)cn1 (single isomer, unassigned) [Example 122] |
| ≥ 1000 | CC(F)(F)n1ccc([C@]2(C)C[C@@H](C(=O)Nc3cnc(-c4ncccn4)c(Cl)c3)c3cnc4cc(F)nn4c32)n1 (single isomer, unassigned) [Example 169] |
| 100 to 1000 | CC(F)(F)n1ccc([C@]2(C)C[C@H](C(=O)Nc3cnc(-c4ncccn4)c(C(F)(F)F)c3)c3cnc4cc(F)nn4c32)n1 (single isomer, unassigned) [Example 166, (cis)-8-(1-(1,1-difluoroethyl)-1H-pyrazol-3-yl)-2-fluoro-8-methyl-N-(6-(pyrimidin-2-yl)-5-(trifluoromethyl)pyridin-3-yl)-7,8-dihydro-6H-cyclopenta[e]pyrazolo[1,5-a]pyrimidine-6-carboxamide] |
| 100 to 1000 | CC1(c2ccn(C(F)F)n2)CC(C(=O)Nc2cnc(-c3ncc(F)cn3)c(C(F)(F)F)c2)c2cnc3cc(F)nn3c21 (single isomer, unassigned) [Example 117] |
| ≥ 1000 | C[C@@]1(c2ccn(C(F)F)n2)C[C@H](C(=O)Nc2cnc(-c3ncccn3)c(Cl)c2)c2cnc3cc(F)nn3c21 (single isomer, unassigned) [Example 142] |
